Reference: PMC8343220, “The selectivity of α‐adrenoceptor agonists for the human α1A, α1B, and α1D‐adrenoceptors” (Pharmacology Research & Perspectives, 2021)
Read-outs that look alike come from different tables or passages of the source.

Legend:
human α1A‐adrenoceptor [1] = target: T1, human α1A‐adrenoceptor (Homo sapiens, UniProt P35348); assay: ^3H‐cAMP accumulation in the presence of 10 μM forskolin, CHO‐α1A cells; assay type: cell-based; conditions: CHO‐α1A cells; for cAMP accumulation (in presence of forskolin) Log EC50: 10 μM forskolin
T1 construct: expressed in transfected cells; host or cells: CHO-K1
T1 sequence (P35348 1-466): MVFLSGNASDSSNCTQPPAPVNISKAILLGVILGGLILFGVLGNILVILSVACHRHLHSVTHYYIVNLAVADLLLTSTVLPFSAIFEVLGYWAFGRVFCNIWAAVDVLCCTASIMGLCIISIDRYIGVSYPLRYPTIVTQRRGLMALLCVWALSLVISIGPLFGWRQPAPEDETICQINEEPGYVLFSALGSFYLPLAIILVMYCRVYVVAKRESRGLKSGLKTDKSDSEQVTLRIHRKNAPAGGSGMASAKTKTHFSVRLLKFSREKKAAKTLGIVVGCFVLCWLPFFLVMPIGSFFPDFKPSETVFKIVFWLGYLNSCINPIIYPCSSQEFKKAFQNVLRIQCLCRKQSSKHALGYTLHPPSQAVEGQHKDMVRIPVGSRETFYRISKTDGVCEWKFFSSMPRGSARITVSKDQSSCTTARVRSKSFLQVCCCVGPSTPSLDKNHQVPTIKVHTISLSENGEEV

[2] = target: T2, human α1D‐adrenoceptor (full length) (Homo sapiens, UniProt P25100); conditions: CHO‐α1D cells; ligands marked ^a; ref Proudman et al., 2020; cited from earlier work
T2 construct: human α1D‐adrenoceptor (full length) were used; expressed in transfected cells; host or cells: CHO-K1
T2 sequence (P25100 1-572): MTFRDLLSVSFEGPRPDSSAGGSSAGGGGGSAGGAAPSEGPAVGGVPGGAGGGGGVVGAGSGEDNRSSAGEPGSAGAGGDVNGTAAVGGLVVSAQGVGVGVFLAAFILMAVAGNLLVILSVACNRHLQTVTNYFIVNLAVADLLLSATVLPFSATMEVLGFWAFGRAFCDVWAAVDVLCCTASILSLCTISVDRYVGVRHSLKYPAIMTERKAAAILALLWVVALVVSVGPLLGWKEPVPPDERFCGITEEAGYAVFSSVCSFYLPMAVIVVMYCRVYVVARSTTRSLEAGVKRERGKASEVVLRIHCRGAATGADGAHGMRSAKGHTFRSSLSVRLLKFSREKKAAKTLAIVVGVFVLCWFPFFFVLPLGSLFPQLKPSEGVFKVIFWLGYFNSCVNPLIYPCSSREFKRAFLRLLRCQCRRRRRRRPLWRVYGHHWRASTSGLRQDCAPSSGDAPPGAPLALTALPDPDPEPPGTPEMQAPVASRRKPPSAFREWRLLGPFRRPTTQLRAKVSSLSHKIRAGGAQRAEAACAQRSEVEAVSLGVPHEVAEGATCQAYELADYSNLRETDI

human α1A‐adrenoceptor [3] = target: T1, human α1A‐adrenoceptor; assay: ERK1/2‐phosphorylation (Surefire Alphascreen), CHO‐α1A cells; assay type: cell-based
[4] = target: T2, human α1D‐adrenoceptor (full length); assay: ERK1/2‐phosphorylation (Surefire Alphascreen), CHO‐α1D cells; assay type: cell-based; conditions: for ERK1/2‐phosphorylation % PDBu: maximal response as % of PDBu
human α1A‐adrenoceptor [5] = target: T1, human α1A‐adrenoceptor; conditions: CHO‐α1A cells; given as log KD (negative); ligands marked ^a; ref Proudman et al., 2020; cited from earlier work
[6] = target: T2, human α1D‐adrenoceptor (full length); assay: Intracellular free calcium mobilization, CHO‐α1D cells; assay type: cell-based; conditions: for Intracellular calcium release % ionomycin: maximal response as % of 10 µM ionomycin
human α1A‐adrenoceptor [7] = target: T1, human α1A‐adrenoceptor; assay: Intracellular free calcium mobilization, CHO‐α1A cells; assay type: cell-based
human α1B‐adrenoceptor [8] = target: T3, human α1B‐adrenoceptor (Homo sapiens, UniProt P35368); conditions: CHO‐α1B cells; given as log KD (negative); ligands marked ^a; ref Proudman et al., 2020; cited from earlier work
T3 construct: expressed in transfected cells; host or cells: CHO-K1
T3 sequence (P35368 1-520): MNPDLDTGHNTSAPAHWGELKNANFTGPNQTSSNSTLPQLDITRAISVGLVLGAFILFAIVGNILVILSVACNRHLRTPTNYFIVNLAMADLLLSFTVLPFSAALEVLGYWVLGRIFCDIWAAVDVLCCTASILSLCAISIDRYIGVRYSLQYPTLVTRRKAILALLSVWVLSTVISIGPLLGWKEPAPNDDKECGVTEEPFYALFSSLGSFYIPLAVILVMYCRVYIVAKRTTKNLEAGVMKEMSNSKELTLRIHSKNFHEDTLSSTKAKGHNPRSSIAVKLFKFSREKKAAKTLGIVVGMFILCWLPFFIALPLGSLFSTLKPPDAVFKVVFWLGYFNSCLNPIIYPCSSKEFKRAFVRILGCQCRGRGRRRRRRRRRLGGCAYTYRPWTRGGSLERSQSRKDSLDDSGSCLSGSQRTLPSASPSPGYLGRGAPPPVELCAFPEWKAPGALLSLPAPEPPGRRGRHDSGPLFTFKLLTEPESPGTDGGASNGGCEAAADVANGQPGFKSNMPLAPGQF

human α1A‐adrenoceptor [9] = target: T1, human α1A‐adrenoceptor; assay: ^3H‐cAMP accumulation, CHO‐α1A cells; assay type: cell-based; conditions: CHO‐α1A cells; for cAMP accumulation Log EC50: 5 h; for cAMP accumulation % forskolin: % of 10 µM forskolin response
human α1B‐adrenoceptor [10] = target: T3, human α1B‐adrenoceptor; assay: Intracellular free calcium mobilization, CHO‐α1B cells; assay type: cell-based
[11] = tested on: parental CHO cell line without any transfected receptors; assay: ERK1/2‐phosphorylation, parent CHO cells without transfected receptors; assay type: cell-based, Chinese hamster
human α1B‐adrenoceptor [12] = target: T3, human α1B‐adrenoceptor; assay: ERK1/2‐phosphorylation (Surefire Alphascreen), CHO‐α1B cells; assay type: cell-based
[13] = tested on: parental CHO cell line without any transfected receptors; assay: Forskolin‐stimulated cAMP accumulation, parent CHO cells without transfected receptors; assay type: cell-based, Chinese hamster; conditions: CHO cells without transfected receptors
[14] = target: T2, human α1D‐adrenoceptor (full length); assay: ^3H‐prazosin whole‐cell radioligand binding, CHO‐α1D cells
human α1A‐adrenoceptor [15] = target: T1, human α1A‐adrenoceptor; assay: ^3H‐prazosin whole‐cell radioligand binding, CHO‐α1A cells
[16] = tested on: parental CHO cell line without any transfected receptors; assay: Intracellular calcium mobilization, parent CHO cells without transfected receptors; assay type: cell-based, Chinese hamster
[17] = CHO‐α1A cells, % of 10 µM PDBu, ^a bi‐phasic: initial stimulatory part
[18] = CHO‐α1A cells, given as log EC50 (negative)
[19] = CHO‐α1A cells, maximal response as % of 10 µM ionomycin
[20] = CHO‐α1B cells, maximal response as % PDBu response, for bi‐phasic responses the initial stimulatory part
[21] = CHO‐α1B cells, response at 100 µM ligand (no EC50 given), % of ionomycin response
[22] = CHO‐α1D cells, response at 100 µM ligand (no EC50 given)

SMILES | cAMP accumulation (in presence of forskolin) Log EC50 (human α1A‐adrenoceptor [1]) | ERK1/2‐phosphorylation % PDBu (human α1A‐adrenoceptor [3]; [17]) | ERK1/2‐phosphorylation % PDBu ([4]; CHO‐α1D cells) | Intracellular calcium release % ionomycin ([6]; CHO‐α1D cells) | Intracellular calcium release Log EC50 (human α1A‐adrenoceptor [7]; [18]) | Intracellular calcium release % ionomycin (human α1A‐adrenoceptor [7]; [19]) | cAMP accumulation Log EC50 (human α1A‐adrenoceptor [9]) | cAMP accumulation % forskolin (human α1A‐adrenoceptor [9]) | Intracellular calcium release % Ionomycin at 100 µM (human α1B‐adrenoceptor [10]; [21]) | % site 1 (% of the response at the first component), α1D two‐component binding curve [2] | Log KD α1A, ^3H‐prazosin whole cell binding (human α1A‐adrenoceptor [5]) | Log KD α1B, ^3H‐prazosin whole cell binding (human α1B‐adrenoceptor [8]) | ERK1/2‐phosphorylation % PDBu (human α1B‐adrenoceptor [12]; [20]) | Log KD α1D, ^3H‐prazosin whole cell binding (single site or first, higher affinity component) [2] | further results
O=C1CCC(=O)N1C[C@H]1CC[C@H]2CN(c3ncccn3)CCN2C1 [Sunepitrion] |  |  |  |  |  |  |  |  |  |  | −5.78 ± 0.06 | −4.65 ± 0.06 |  | −5.33 ± 0.23 | ERK1/2‐phosphorylation % PDBu (human α1A‐adrenoceptor [3]): 39.7 ± 8.4%; ERK1/2‐phosphorylation Log EC50 (human α1A‐adrenoceptor [3]): −5.96 ± 0.12; ERK1/2‐phosphorylation % PDBu at 100 µM [4]: 2.4 ± 1.1%; ERK1/2-phosphorylation % PDBu at 100μM [11]: 4.1 ± 2.7%; Intracellular calcium release % Ionomycin at 100 µM [6]: 2.5 ± 0.5%; ERK1/2‐phosphorylation % PDBu (human α1B‐adrenoceptor [12]): 7.8 ± 2.8%; Intracellular calcium release % ionomycin (human α1A‐adrenoceptor [7]): 30.1 ± 3.0%; Intracellular calcium release Log EC50 (human α1A‐adrenoceptor [7]): −6.17 ± 0.14; Log efficacy ratio KD /EC50 (human α1A‐adrenoceptor [7]): 0.39; 3H‐prazosin binding Log KD [14]: −5.33; Affinity selectivity ratio α1B vs α1D [14]: 4.8 fold; Affinity selectivity ratio α1A vs α1B (human α1A‐adrenoceptor [15]): 13.5 fold; Affinity selectivity ratio α1A vs α1D (human α1A‐adrenoceptor [15]): 2.8 fold; Intracellular calcium release % ionomycin [16]: No response; Intracellular calcium release % Ionomycin at 100 µM (human α1B‐adrenoceptor [10]): 8.2 ± 1.3%
CC1c2ccccc2CN1CC1=NCCN1 (stereo not shown) [BRL44408] | −6.43 ± 0.09 | 77.4 ± 4.1% |  |  | −7.24 ± 0.10 | 36.5 ± 5.4% | −6.27 ± 0.17 | 4.7 ± 0.5% | 13.7 ± 6.5% |  | −5.92 ± 0.09 | −4.68 ± 0.07 |  | −5.06 ± 0.05 | cAMP accumulation (in presence of forskolin) Fold increase (human α1A‐adrenoceptor [1]; fold increase of the forskolin response): 1.62 ± 0.08 fold; ERK1/2‐phosphorylation Log EC50 (human α1A‐adrenoceptor [3]; CHO‐α1A cells, 2–4 min, ^a bi‐phasic: initial stimulatory part, ^b also active in parent CHO cells): −7.03 ± 0.14; ERK1/2‐phosphorylation % PDBu at 100 µM [4, 22]: 47.4 ± 5.7%; ERK1/2-phosphorylation % PDBu at 100μM ([11]; CHO cells without transfected receptors, response at 100μM only, EC50 not obtainable, % of PDBu (10μM)): 17.6 ± 8.1%; Intracellular calcium release % Ionomycin at 100 µM [6, 22]: 4.5 ± 2.1%; ERK1/2‐phosphorylation % PDBu at 100 µM (human α1B‐adrenoceptor [12]; CHO‐α1B cells, response at 100 µM ligand (no EC50 given)): 47.0 ± 7.0%; Log efficacy ratio KD /EC50 (human α1A‐adrenoceptor [7]; CHO‐α1A cells, binding KD and calcium EC50): 1.32; 3H‐prazosin binding Log KD ([14]; CHO‐α1D cells, whole‐cell binding (from Table 1), log values given negative): −5.06; Affinity selectivity ratio α1B vs α1D ([14]; higher affinity for α1D than α1B): 2.4 fold; Affinity selectivity ratio α1A vs α1B (human α1A‐adrenoceptor [15]; higher affinity for α1A than α1B): 17.4 fold; cAMP accumulation (in presence of forskolin) % forskolin-stim cAMP at 100μM ([13]; response at 100μM only, EC50 not obtainable, % of forskolin-stimulated cAMP): 77.6 ± 2.3%
COc1ccccc1N1CCN(CC2CN3C(=O)N(C)c4ccccc4C3=N2)CC1 (stereo not shown) [2‐MPMDQ] | No response | 13.6 ± 3.7% | No response | No response | −7.69 ± 0.08 | 19.7 ± 2.0% | No response | No response | 3.1 ± 1.5% | 64.0 ± 2.1% | −9.06 ± 0.07 | −7.37 ± 0.04 | No response |  | 

Second part, led by results:

cAMP accumulation (in presence of forskolin) Log EC50 (human α1A‐adrenoceptor [1]) | ERK1/2‐phosphorylation % PDBu (human α1A‐adrenoceptor [3]; [17]) | ERK1/2‐phosphorylation % PDBu ([4]; CHO‐α1D cells) | Intracellular calcium release % ionomycin ([6]; CHO‐α1D cells) | Intracellular calcium release Log EC50 (human α1A‐adrenoceptor [7]; [18]) | Intracellular calcium release % ionomycin (human α1A‐adrenoceptor [7]; [19]) | cAMP accumulation Log EC50 (human α1A‐adrenoceptor [9]) | cAMP accumulation % forskolin (human α1A‐adrenoceptor [9]) | Intracellular calcium release % Ionomycin at 100 µM (human α1B‐adrenoceptor [10]; [21]) | SMILES | % site 1 (% of the response at the first component), α1D two‐component binding curve [2] | Log KD α1A, ^3H‐prazosin whole cell binding (human α1A‐adrenoceptor [5]) | Log KD α1B, ^3H‐prazosin whole cell binding (human α1B‐adrenoceptor [8]) | ERK1/2‐phosphorylation % PDBu (human α1B‐adrenoceptor [12]; [20]) | Log KD α1D, ^3H‐prazosin whole cell binding (single site or first, higher affinity component) [2] | further results
No response | 10.4 ± 3.4% | No response | No response | −7.63 ± 0.13 | 16.6 ± 1.8% | No response | No response |  | O=C1Nc2ccccc2C2=NC(CN3CCN(c4ccccc4)CC3)CN12 (stereo not shown) [2‐PMDQ] | 57.6 ± 2.8% | −8.19 ± 0.09 | −6.95 ± 0.05 |  |  | Intracellular calcium release Log EC50 (human α1B‐adrenoceptor [10]; CHO‐α1B cells, given as log EC50 (negative numbers)): No response; Intracellular calcium release % ionomycin (human α1B‐adrenoceptor [10]; CHO‐α1B cells, maximal response as % of 10 µM ionomycin response): No response
 | 29.2 ± 3.8% | No response | No response | −7.99 ± 0.19 | 20.8 ± 2.0% | −8.41 ± 0.23 | 1.2 ± 0.2% | 4.8 ± 1.7% | COc1ccccc1N1CCN(CCN2C(=O)c3ccccc3C(C)(C)C2=O)CC1 [ARC239] | 60.5 ± 1.4% | −9.35 ± 0.08 | −8.15 ± 0.07 | No response |  | ERK1/2-phosphorylation % PDBu ([11]; CHO cells without transfected receptors, maximal response as % of PDBu (10μM) response, mean ± s.e.m.): No response; cAMP accumulation (in presence of forskolin) Log EC50 ([13]; in presence of forskolin): No response
